Test system: Rat liver homogenates
Experiment: Antioxidant activity: FeSO₄-induced peroxide production in rat liver homogenates (thiobarbituric acid reaction)
Assay type: biochemical
Conditions: rat liver homogenate incubated with FeSO₄; peroxide determined by thiobarbituric acid reaction, malonaldehyde as standard; read-out: IC₅₀
Protocol: Rat liver homogenates were prepared according to Fraga, C.G. et al. Free Radicals Biol. Med., 4, 155, 1988 and Kornburst D.J. et al. Lipids 15, 315, 1980.
Peroxides were generated by incubation of the homogenate with the FeSO₄ as described by Quitanilha A.T. et al. Ann. N.Y., Acad. Sci. 393, 32, 1982.
Compounds to be tested for their antioxidant activity were dissolved in DMSO and added to the incubation mixture. The amount of peroxide produced was determined by the thiobarbituric acid reaction using malonaldehyde as standard.

SMILES | IC50
CCOP(=O)(OCC)C(=Cc1cc(C(C)(C)C)c(O)c2c1CCCC2)P(=O)(OCC)OCC [Example 6, Tetraethyl 2-(3-tert-butyl-4-hydroxy-5,6,7,8-tetrahydronaphthyl)-ethenylidene-1,1-diphosphonate] | 7000 nM
CC(C)OP(=O)(OC(C)C)C(=Cc1cc(C(C)(C)C)c(O)c2c1CCCC2)P(=O)(OC(C)C)OC(C)C [Example 8, Tetraisopropyl 2-[3-tert-butyl-4-hydroxy-5,6,7,8-tetrahydronaphthyl]-ethenylidene-1,1-diphosphonate] | 2500 nM
CCOP(=O)(OCC)C(=Cc1cc(C(C)(C)C)c(O)c2ccccc12)P(=O)(OCC)OCC [Example 1, Tetraethyl 2-[3-t-butyl-4-hydroxynaphthyl]ethenylidene-1,1-diphosphonate] | 1500 nM
CC(C)OP(=O)(OC(C)C)C(=Cc1cc(C(C)(C)C)c(O)c2ccccc12)P(=O)(OC(C)C)OC(C)C [Example 2, Tetraisopropyl 2-[3-t-butyl-4-hydroxynaphthyl]ethenylidene-1,1-diphosphonate] | 700 nM

Source: EP0418064B1, “Naphthalene and tetrahydronaphthalene gem-diphosphonate derivatives” (SYMPHAR S.A., priority 1989, dated 1991)
